Data as given in paper PMC10510154 (ACS Chemical Biology, 2023).

Experiments:
[1] = test system: OTUB1, OTUD1, OTUD2, OTUD3, OTUD6B, Cezanne, UCHL1 and USP16; assay: In vitro DUB selectivity panel, ubiquitin substrate cleavage assay (whole panel); assay type: biochemical, human; conditions: at concentrations up to 150 μM
Description: After having determined the (1S,2S) configuration as the preferred stereoisomer, we turned our attention to the aromatic ring substituents to further improve the compound potency. Applying the same chemo-enzymatic strategy described above, a panel of aryl substituted trans (1S,2S) cyclopropane compounds 7–10 were generated having a methyl (7–9) or fluorine (10) substituent at different positions on the aromatic ring. The compounds were tested for their OTUB2 inhibitory potency using the assay as described above (Table 1, Figure S1A). […] Since these compounds are all covalent, irreversible inhibitors,[15] the IC50 depends on the incubation time. To get a better estimate of their respective inhibitory capacity, independent of incubation time, we determined the kinact/KI values of compounds 5–10 by pre-mixing the compounds with the substrate before adding OTUB2. […] The in vitro selectivity of LN5P45 for OTUB2 was assessed using a panel containing six DUBs from the OTU family, including its closest family members OTUB1, OTUD1, OTUD2, OTUD3, OTUD6B, and Cezanne, and two DUBs from outside this family, UCHL1 and USP16 (Figure S2, Table S1). […]

[2] = test system: reactive cysteine sites in HeLa cells expressing GFP or GFP-OTUB2; assay: SLC-ABPP profiling of LN5P45-reactive cysteines with DBIA probe; assay type: cell-based, Homo sapiens; conditions: 10 μM for 4 h, 10,670 cysteine peptides detected
Description: Reduced disulfide bonds were alkylated using 20 mM iodoacetamide for 30 min in the dark at RT.

UCHL1 = target: T1, UCHL1 (Homo sapiens, UniProt P09936); assay: In vitro DUB selectivity panel, ubiquitin substrate cleavage assay; assay type: biochemical; conditions: marginal inhibition
T1 construct: UCHL1 FL (1-223); made in house
T1 sequence (P09936 1-223): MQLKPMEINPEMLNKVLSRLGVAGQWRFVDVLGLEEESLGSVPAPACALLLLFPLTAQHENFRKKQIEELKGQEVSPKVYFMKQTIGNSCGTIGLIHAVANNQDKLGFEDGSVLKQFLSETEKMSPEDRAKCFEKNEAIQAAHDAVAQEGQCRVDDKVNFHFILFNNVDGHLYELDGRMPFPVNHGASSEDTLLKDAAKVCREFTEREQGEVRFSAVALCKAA
Description: (§1) After having determined the (1S,2S) configuration as the preferred stereoisomer, we turned our attention to the aromatic ring substituents to further improve the compound potency. Applying the same chemo-enzymatic strategy described above, a panel of aryl substituted trans (1S,2S) cyclopropane compounds 7–10 were generated having a methyl (7–9) or fluorine (10) substituent at different positions on the aromatic ring. The compounds were tested for their OTUB2 inhibitory potency using the assay as described above (Table 1, Figure S1A). […] Since these compounds are all covalent, irreversible inhibitors,[15] the IC50 depends on the incubation time. To get a better estimate of their respective inhibitory capacity, independent of incubation time, we determined the kinact/KI values of compounds 5–10 by pre-mixing the compounds with the substrate before adding OTUB2. […] The in vitro selectivity of LN5P45 for OTUB2 was assessed using a panel containing six DUBs from the OTU family, including its closest family members OTUB1, OTUD1, OTUD2, OTUD3, OTUD6B, and Cezanne, and two DUBs from outside this family, UCHL1 and USP16 (Figure S2, Table S1).
(§2) The assays were performed in “nonbinding surface flat bottom low flange” black 384-well plates (Corning 3820) at room temperature in a buffer containing 50 mM Tris·HCl, 100 mM NaCl, pH 7.6, 2.0 mM cysteine, 1 mg/mL 3-[(3-cholamidopropyl)-dimethylammonio]propanesulfonic acid (CHAPS), and 0.5 mg/mL γ-globulins from bovine blood (BGG). All dispensing steps involving buffered solutions were performed on a Biotek MultiFlowFX dispenser. […] The compounds were dissolved in 10 mM and 1 mM DMSO stock solutions, and appropriate volumes were transferred to the empty plates using a Labcyte Echo acoustic dispenser to obtain a 12-point serial dilution. […] A 3 μL portion of the substrate (UbRhoMP, or K48-linked diUb FRET pair[35] for OTUB1) was added (final concentration 500 nM), and the increase in fluorescence over time was recorded using a BMG Labtech PHERAstar plate reader (excitation 487 nm, emission 535 nm).

OTUD3 = target: T2, OTUD3 (Homo sapiens, UniProt Q5T2D3); assay: as above; assay type: biochemical
T2 construct: OTUD3 FL (1-398) GST, cleaved Q5T2D3; GST (cleaved yes); purchased Ubiquigent DUBscan Kit 67-0006-001
T2 sequence (Q5T2D3 1-398): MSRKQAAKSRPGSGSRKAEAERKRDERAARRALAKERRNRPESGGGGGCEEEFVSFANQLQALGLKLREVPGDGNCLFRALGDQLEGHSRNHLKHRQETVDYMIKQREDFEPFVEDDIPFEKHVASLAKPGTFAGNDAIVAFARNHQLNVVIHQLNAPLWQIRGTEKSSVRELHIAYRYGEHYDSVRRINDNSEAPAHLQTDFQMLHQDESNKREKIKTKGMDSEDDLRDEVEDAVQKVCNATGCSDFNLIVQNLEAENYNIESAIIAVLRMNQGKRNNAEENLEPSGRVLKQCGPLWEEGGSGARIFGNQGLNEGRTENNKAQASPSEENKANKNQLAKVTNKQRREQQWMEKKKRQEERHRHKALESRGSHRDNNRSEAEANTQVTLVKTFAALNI
Description: as §1, §2

USP16 = target: T3, USP16 (Homo sapiens, UniProt Q9Y5T5); assay: as above; assay type: biochemical; conditions: marginal inhibition
T3 construct: USP16 FL (22-823); His-tag (N); made in house
Description: as §1, §2

T3 sequence (Q9Y5T5 22-823): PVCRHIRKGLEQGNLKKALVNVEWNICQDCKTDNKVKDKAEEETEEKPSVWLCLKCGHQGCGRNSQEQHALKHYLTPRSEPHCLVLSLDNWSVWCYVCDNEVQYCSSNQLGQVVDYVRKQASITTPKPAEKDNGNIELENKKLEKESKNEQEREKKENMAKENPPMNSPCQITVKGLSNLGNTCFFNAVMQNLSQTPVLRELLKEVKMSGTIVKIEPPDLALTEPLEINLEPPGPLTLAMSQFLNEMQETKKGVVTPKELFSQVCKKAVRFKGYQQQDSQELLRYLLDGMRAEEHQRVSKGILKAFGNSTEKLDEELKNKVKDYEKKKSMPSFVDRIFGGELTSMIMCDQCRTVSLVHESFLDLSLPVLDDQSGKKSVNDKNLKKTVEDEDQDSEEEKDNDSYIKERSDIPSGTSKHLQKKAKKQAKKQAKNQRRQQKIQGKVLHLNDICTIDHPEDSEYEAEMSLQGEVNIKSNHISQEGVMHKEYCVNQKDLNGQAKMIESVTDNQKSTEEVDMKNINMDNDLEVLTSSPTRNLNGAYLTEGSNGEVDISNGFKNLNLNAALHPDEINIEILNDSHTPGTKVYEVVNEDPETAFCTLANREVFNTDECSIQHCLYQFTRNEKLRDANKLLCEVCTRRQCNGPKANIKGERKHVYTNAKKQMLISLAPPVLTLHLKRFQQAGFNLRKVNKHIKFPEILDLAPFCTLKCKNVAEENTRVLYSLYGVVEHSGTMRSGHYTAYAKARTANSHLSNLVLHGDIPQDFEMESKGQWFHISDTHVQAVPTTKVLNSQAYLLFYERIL

## Cc1cccc([C@H]2C[C@@H]2C(=O)NNC(=O)CCl)c1 [Compound 8]
[1]
  Inhibition of most DUBs of the panel: not inhibited
[2]
  Number of proteins not involved in ubiquitination with inhibited DBIA probe binding: seven
UCHL1
  IC50: > 100 µM
OTUD3
  IC50: 56 µM
USP16
  IC50: > 100 µM
